pIC50: −log10 of the molar value.
How the values were obtained:
[1] = test system: Human PBMC incubated with MHC-mismatched PBMC; test: One-way mixed lymphocyte reaction (primary MLR), [3H]TdR uptake; assay type: cell-based; conditions: for % response (alloreactive relative response, cpm with/without tyrphostin x100): FIG. 2, response without tyrphostin = 100%; for cpm: no tyrphostin 10,734 cpm
Description: Cell sources: Human peripheral blood mononuclear cells (PBMC) were obtained from healthy human donors after separation on Ficoll-Paque density gradient essentially as described in Boyum, A. Scand. J Lab. Invest. […] Reagents:
One-way mixed lymphocyte reaction (MLR assay): Responding cells derived from donor A (5×10^4) were cultured in round-bottom microwell plates with an equal number (5×10^4) of irradiated (6000 cGy) donor B PBMC with and without tyrphostins. […] During the last 18 hours of incubation, cultures were pulsed with 2 μCi of [^3H] TdR.
(§1) Harvesting and radioactivity determination: Harvesting was carried out by a multiple-sample cell harvester and radioactivity, expressed in counts per minutes (cpm), was determined in a liquid scintillation β-counter.
Human PBMC were incubated either with autologous or with MHC-mismatched PBMC in a one-way MLR assay, with and without various concentrations of tyrphostins, as is described hereinabove.
In this case, the alloreactive response without the tyrphostins was considered as 100% response. Percentage of response was calculated according to the following formula: b/a×100; where a=cpm in cultures without tyrphostin, b=cpm in cultures with tyrphostin.

[2] = test system: Human PBMC stimulated with phytohemagglutinin (PHA); test: Primary mitogenic response assay (PHA), [3H]TdR uptake; assay type: cell-based; conditions: Table 6, tyrphostin 20 μM
Description: Mitogens: Phytohemagglutinin (PHA) and concanavalin A (Con-A) were dissolved in saline and diluted to their final concentration in culture medium. Anti-CD3 (OK3 stock solution 1 μg/ml) was diluted to 0.2 μg/ml final concentration in culture medium.
Responding PBMC cells (10^5) derived from donor A were cultured in flat-bottom microwell plates with and without tyrphostins, and with phytohemagglutinin (PHA) 1 μg/ml, or concanavalin A 18 μg/ml. […] During the last 18 hours of incubation, cultures were pulsed with 1 μCi of [^3H] TdR.
as §1

[3] = test system: donor A anti-donor B-primed human PBMC vs donor B PBMC; test: Secondary MLR of alloantigen-primed PBMC against priming donor B; assay type: cell-based; conditions: then removed, priming without tyrphostin = 100%
Description: (§2) PBMC from donor A (10×10^6) were stimulated with equal number of irradiated (6000 cGy) donor B PBMC, with and without tyrphostins, in a total volume of 20 ml culture medium supplemented with 10% heat inactivated human AB^+ serum (mixed lymphocyte culture, MLC). Cultures were placed vertically in 25 cm tissue culture flasks in a 5% CO2, humidified incubator at 37° C. After 10 days, cells were washed twice to remove the tyrphostin, and tested for their ability to respond in the MLR and the primary mitogenic response assay described hereinabove.
(§3) The alloreactivity of donor A anti-donor B-primed cells (5×10^4) was tested in a 6-day one-way primary MLR assay against third party unrelated donor C PBMC (10^5), or against donor A cells (background control). Cultures were placed in round-bottom microwell plates. On day 5, cultures were pulsed with 2 μCi [^3H] TdR/well for 16-18 hours and then harvested. […] After 48 hours at 37° C. in a 5% CO2 humidified incubator, cultures were pulsed with 2 μCi [^3H] TdR for another 16-18 hours and then harvested.
as §1
(§4) […] After 10 days the tyrphostin was removed and the primed cells were tested for their ability to respond in a secondary MLR assay against the priming (donor B) alloantigens, in a primary MLR assay against third party unrelated alloantigens (donor C), and to non-specific stimulation in a mitogenic assay. […] Percentage of response was calculated according to the formula described above.

[4] = test system: donor A anti-donor B-primed human PBMC vs third party unrelated donor C PBMC; test: Primary MLR of alloantigen-primed PBMC against third party unrelated donor C; assay type: cell-based; conditions: then removed, priming without tyrphostin = 100%
Description: as §2, §3, §1, §4

[5] = test system: donor A anti-donor B-primed human PBMC stimulated with PHA; test: Mitogenic response (PHA) of alloantigen-primed PBMC; assay type: cell-based; conditions: then removed, priming without tyrphostin = 100%
Description: as §2
Cultures were incubated for 48 hours in a total volume of 0.2 ml culture medium supplemented with 10% heat-inactivated human AB^+ serum at 37° C. in a 5% CO2 humidified incubator, pulsed for 16-18 hours with 1 μCi [^3H]TdR/well, and then harvested.
as §1, §4

[6] = test system: Mice with donor skin graft; test: Skin grafting after tolerogenic treatment (TLI, donor bone marrow cells, tyrphostin, cyclophosphamide); assay type: in vivo; parameters: Survivors after 50 days / Survivors after 50 days (%) / Survivors after 100 days / Survivors after 100 days (%): dose or concentration left out as unconfirmed
[7] = primed 10 days with tyrphostin 25 μM
[8] = primed 10 days with tyrphostin 50 μM

Row | Structure (SMILES) | % response (alloreactive relative response, cpm with/without tyrphostin x100) ([1]; primary MLR, tyrphostin 10 μM) | % response (alloreactive relative response, cpm with/without tyrphostin x100) ([1]; primary MLR, tyrphostin 50 μM) | inhibition at 25 µM ([1]; Homo sapiens, PBMC, 144 h, Table 2, primary MLR, tyrphostin 25 μM) | inhibition at 50 µM ([1]; Homo sapiens, PBMC, 144 h, Table 2, primary MLR, tyrphostin 50 μM) | pIC50 ([1]; Homo sapiens, PBMC, Table 5, some values marked (mean), read-out: IC 50% (inhibition of Primary MLR)) | cpm ([1]; Table 2, primary MLR, tyrphostin 25 μM) | cpm ([1]; Table 2, primary MLR, tyrphostin 50 μM) | inhibition at 20 µM ([2]; Homo sapiens, PBMC, 96 h, mitogenic response) | cpm ± SD ([2]; PHA without tyrphostin 14,959±644, medium 155±37) | % Response to primary stimulator [3, 7] | % Response to primary stimulator [3, 8] | % Response to unrelated stimulator [4, 7] | % Response to unrelated stimulator [4, 8] | % Response to PHA [5, 7] | % Response to PHA [5, 8] | Survivors after 50 days (%) ([6]; mice, s.c.) | Survivors after 100 days (%) ([6]; mice, s.c.) | Survivors after 50 days ([6]; mice, s.c., survivors/total) | Survivors after 100 days ([6]; mice, s.c., survivors/total) | effectiveness of sub-optimal dose by itself ([6]; mouse, in vivo, 100 mg/kg)
1 | N#CC(=Cc1ccc(O)c(O)c1)C(=O)NCc1ccccc1 [Tyr 1, N-benzyl-2-cyano-3-(3,4-dihydroxyphenyl)-acrylamide] | 40% | 4% | 77% | 89% | 4.35 | 2,420 cpm | 1,132 cpm | 60% | 6,023 ± 876 cpm | 22 ± 14% | 19 ± 10% | 99 ± 29^ % | 175 ± 77% | 290 ± 111^ % | 176 ± 50% | (20%) | (20%) | 1/5 | 1/5 | –
2 | O=P1(N(CCCl)CCCl)NCCCO1 (centres unmarked) [cyclophosphamide, reference compound] | – | – | – | – | – | – | – | – | – | – | – | – | – | – | – | – | – | – | – | ineffective

— US20040197335A1, “Non-myeloablative tolerogenic treatment with tyrphostins” (priority 2003, published 2004)
